Reference: patent US20260317367A1, “SALTS INCLUDING CRYSTALLINE SALTS OF 25-HYDROXY-CHOLEST-5-EN-3-SULFATE AND METHODS FOR PREPARING SAME” (Durect Corporation, priority 2022, published 2026)
Structures can show the parent of a compound that is named as a salt.

Assay: Solubility of the lysine salt in solvents for NMR analysis
Type: physicochemical
Text: Use of TFA as solvent cleaves the sulfate group at the C3 position. ^1H-NMR analysis (CF3COOD) indicated a 1/1 ratio of lysine to cholesterol, as well as ~0.2 eq. triethylamine and some iPrOH.

Solubility in other solvents (in words) (any other common organic solvents or acidic or basic aqueous solutions): No solubility was detected
SMILES: C[C@H](CCCC(C)(C)O)[C@H]1CC[C@H]2[C@@H]3CC=C4C[C@@H](OS(=O)(=O)O)CC[C@]4(C)[C@H]3CC[C@]12C [Salt #14]
Solubility in trifluoroacetic acid (in words) (trifluoroacetic acid): only adequately soluble in trifluoroacetic acid
